Data taken from ChEMBL document CHEMBL1153257, “Diphenylpyrazolidinone and benzodiazepine cholecystokinin antagonists: A case of convergent evolution in medicinal chemistry” (Bioorg Med Chem Lett, 1993).
pIC50: −log10 of the molar value.

Columns and labels:
[1] = target: T1, Cholecystokinin receptor type A (Rattus norvegicus, UniProt P30551); test: The compound was tested for its activity to inhibit the binding of [3H]-L-364,718 to Cholecystokinin type A receptor in rat pancreas
T1 sequence (P30551 whole entry): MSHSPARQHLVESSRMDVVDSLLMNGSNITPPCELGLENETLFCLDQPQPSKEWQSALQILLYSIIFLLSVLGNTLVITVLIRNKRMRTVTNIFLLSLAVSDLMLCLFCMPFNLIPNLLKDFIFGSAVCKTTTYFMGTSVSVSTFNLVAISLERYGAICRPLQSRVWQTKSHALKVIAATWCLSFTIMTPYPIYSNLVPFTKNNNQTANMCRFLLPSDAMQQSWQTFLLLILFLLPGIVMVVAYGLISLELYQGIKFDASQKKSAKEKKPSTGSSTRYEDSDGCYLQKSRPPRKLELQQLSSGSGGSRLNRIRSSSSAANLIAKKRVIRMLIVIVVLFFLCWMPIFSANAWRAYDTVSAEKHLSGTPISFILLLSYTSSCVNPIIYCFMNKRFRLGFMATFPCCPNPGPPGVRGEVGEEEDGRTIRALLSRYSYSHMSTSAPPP

[2] = target: T2, Gastrin/cholecystokinin type B receptor (Mus musculus, UniProt P56481); test: The compound was tested for its activity to inhibit the binding of [125I]CCK-8 to Cholecystokinin type B receptor in mouse brain at a pH of 6.5; format: tissue-based
T2 sequence (P56481 whole entry): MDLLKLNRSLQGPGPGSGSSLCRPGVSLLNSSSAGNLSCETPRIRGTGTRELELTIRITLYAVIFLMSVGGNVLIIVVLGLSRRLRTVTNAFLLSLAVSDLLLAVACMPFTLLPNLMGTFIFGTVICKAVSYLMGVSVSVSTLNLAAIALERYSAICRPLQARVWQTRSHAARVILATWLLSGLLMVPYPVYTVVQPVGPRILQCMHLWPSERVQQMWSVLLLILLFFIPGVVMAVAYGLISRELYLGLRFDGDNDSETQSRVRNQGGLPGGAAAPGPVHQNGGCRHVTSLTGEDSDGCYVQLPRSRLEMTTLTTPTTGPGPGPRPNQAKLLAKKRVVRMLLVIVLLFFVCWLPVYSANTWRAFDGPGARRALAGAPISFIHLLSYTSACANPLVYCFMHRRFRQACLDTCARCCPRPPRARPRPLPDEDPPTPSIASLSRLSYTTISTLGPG

[3] = target: T1, Cholecystokinin receptor type A; test: The compound was tested for its activity to inhibit the binding of [125I]CCK-8 to Cholecystokinin type A receptor in rat pancreas
[4] = target: T2, Gastrin/cholecystokinin type B receptor; test: The compound was tested for its activity to inhibit the binding of [125I]CCK-8 to Cholecystokinin type B receptor in mouse brain at a pH of 7.4; format: tissue-based

SMILES	pIC50 [1]	pIC50 [2]	pIC50 [4]	pIC50 [3]
O=C1NN(C(=O)Nc2ccc(Br)cc2)[C@H](c2ccccc2)[C@H]1c1ccccc1	5.19	6.43		
CN1C(=O)[C@@H](NC(=O)c2ccc(Cl)cc2)N=C(c2ccccc2)c2ccccc21				9.41
CN1C(=O)[C@H](NC(=O)c2ccc(Cl)cc2)N=C(c2ccccc2)c2ccccc21				8.54
O=C1NN(C(=O)Nc2ccc(Br)cc2)[C@@H](c2ccccc2)[C@@H]1c1ccccc1	4.69	7.72		
O=C1NN(C(=S)Nc2ccc(Cl)c(C(F)(F)F)c2)C(c2ccccc2)C1c1ccccc1 (centres undefined)	7.38		6.06	

More lines, in order of rising pIC50 [1], values ahead:

pIC50 [1]	pIC50 [2]	pIC50 [4]	SMILES	pIC50 [3]
4.94	7.51		O=C1NN(C(=O)Nc2ccc(Br)cc2)C(c2ccccc2)C1c1ccccc1 (centres undefined)	
6.09		6.26	O=C1NN(C(=S)Nc2ccc(Cl)c(C(F)(F)F)c2)[C@@H](c2ccccc2)[C@@H]1c1ccccc1	
7.77		5.72	O=C1NN(C(=S)Nc2ccc(Cl)c(C(F)(F)F)c2)[C@H](c2ccccc2)[C@H]1c1ccccc1	
